# Experimental data from paper PMC5663395, “Chemical Validation of Methionyl-tRNA Synthetase as a Druggable Target in Leishmania donovani” (ACS Infectious Diseases, 2017).
# Where two headings read alike, the source gives them in different places.
# Assays:
# [1] = test system: mitochondrial protein synthesis in H9C2 cells; experiment: Mitochondrial protein synthesis assay (COX-1/SDH-A In-Cell ELISA); format: cell-based; conditions: COX-1/SDH-A ratio, average of three experiments
# [2] = test system: L. donovani intracellular amastigote; experiment: Leishmania intracellular amastigote assay; format: cell-based
# Protocol: carried out as described above using 5%, 10% and 20% FBS in the media. To examine the effect of the methionine concentration on the potency of DDD806905 parasites were grown in the presence of drug and in the presence (or absence) of 20-fold excess methionine (0.3 g/l). IC50 curve fitting was undertaken in GraFit version 6.0 (Erithacus Software) using a four-parameter logistic dose-response curve (equation 6), with s the slope.
# Leishmania Axenic Amastigote Assay
# The Leishmania axenic amastigote assay was performed using the method published in Nühs et al 15.
# Leishmania Intracellular Amastigote Assay
# The intramacrophage Leishmania assay was performed using a modified version of the method described in De Rycker et al 16. […]
# amphotericin B was included. Controls were as follows: columns 11 and 12: DMSO, columns 23 and 24: amphotericin B (final concentration 2 µM). 350 nl of compound was pre-dispensed into 384-well sterile intermediary plates. To the intermediary plates, 35 µl of THP-1 media was added and plates were shaken for >5 min to ensure complete mixing. THP-1 cells (8,000 per well, 50 µl) were plated into black clear-bottom 384-well plates (Corning) in presence of 20 nM phorbol 12-myristate 13- […]
# in a humidified incubator for 75 h. The cells were then washed with 450 µl sterile phosphate buffered saline (PBS) supplemented with 1 mM CaCl2, 0.5 mM MgCl2, 0.1% (w/v) bovine serum albumin (PBS-A) and amastigotes were added to all wells at a multiplicity of infection of 5 (40,000 amastigotes per well). After 40 min at room temperature, plates were returned to the incubator.
# Amastigotes were incubated in the presence of THP-1 macrophages for 16 h. Any remaining extracellular amastigotes were subsequently removed by washing with PBS-A followed by addition of 25 µl of the compound pre-dilutions using an Ipette-pro pipetting station (FluidX). The final dilution of each compound was 200-fold. […] For each well, i) THP-1 cell count (cytotoxicity readout) and ii) average number of amastigotes per cell (potency readout) were […]
# calculated, both in terms of pEC50 values. […]
# [3] = pKa measurement (Sirius T3, UV-metric); format: physicochemical
# Protocol: calculated, both in terms of pEC50 values. MIC (minimum inhibitory concentration) values are defined as the lowest concentration tested at which maximal inhibition is reached.
# THP-1 cells were differentiated in 96-well plates with PMA as described above. Following differentiation the cells were treated for 30 min with dose-response curves of test compounds in presence of 100 nM LysoTracker Red DND-99 (Thermo Fisher) and 5 µg/ml Hoechst 33342. Next cells were washed 3 times with Hanks Buffered Saline Solution (Gibco) and imaged on a Perkin Elmer Operetta system. An image analysis algorithm to measure mean Lysotracker Red DND-99 intensity per cell was developed in Columbus. […]
# To measure the pKa of DDD806905, a fast UV-metric method was performed using a Sirius T3 instrument (Sirius Analytical, U.K.). The calculation of the pKa was determined using the Sirius T3 refine software (Sirius Analytical, U.K.). In brief, the UV-metric pKa method is based on measuring pH during an acid-base titration and monitoring UV absorbance shift. […] The appearance of precipitate was monitored throughout the experiment by a turbidity sensing device. […] The pKas of DDD806905 was determined at the pH where there was maximal change in UV absorbance with respect to pH. […]
# LogD7.4 values were quantified using a Sirius T3 instrument (Sirius Analytical, U.K.). […]
compound,measurement,setting,value
"Cl.Cl.O=c1nc(NCCCNCc2cc3c(Cl)cc(Cl)cc3[nH]2)[nH]c2ccccc12 [DDD806905, 2-((3-(((4,6-dichloro-1H-indol-2-yl)methyl)amino)propyl)amino)quinazolin-4(1H)-one dihydrochloride]",IC50,[1]; H9C2 cells,1700 nM
same,IC50,"[1]; Rattus norvegicus, H9c2, H9C2 cells",1680 nM
same,EC50,"[2]; in THP-1 macrophages, read-out: intracellular amastigote EC50",2900 nM
same,MIC,"[2]; intracellular assay, lowest concentration with maximal inhibition, read-out: MIC (minimum inhibitory concentration)",4.3 µM
same,EC50,"[2]; representative curve, n=8 technical replicates, read-out: intracellular amastigote EC50, representative potency determination",2800 nM
same,compound present in un-ionized state,[3]; pH 5.6,~0%
same,compound present in un-ionized state,[3]; pH 7.3,0.01%
